Read-outs that look alike come from different tables or passages of the source.

For series [1], the system named is T. b. brucei 427. The series can be described thus: In vitro compound sensitivity assay (resazurin viability). Format: cell-based. The note with it: T. b. brucei S427; at 10 µM. The source says:
The bloodstream-form T. b. brucei 427 strain was obtained from Dr. K. Stuart (Seattle Biomedical Research Institute, Seattle, WA) and was used for routine assessment of compound sensitivity in vitro. Additional strains used in vitro include T. b. rhodesiense STIB900, isolated in 1992 from a patient in Tanzania, and T. b. gambiense 108R, isolated from a patient in Democratic Republic of Congo in 2005. T. b. brucei EATRO 110 was a generous gift from the late William Trager of the Rockefeller University. T. b. brucei TREU 667 strains were kindly provided by F. W. Jennings at the University of Glasgow. Both T. b. brucei EATRO 110 and TREU 667 were cultured according to previously described conditions and used for in vivo studies.[18], [19]
T. b. brucei was cultured in complete HMI-9 medium,[20] which contains 10% fetal bovine serum (FBS) (Invitrogen, Carlsbad, CA), 10% Serum Plus medium (SAFC Biosciences, Lenexa, KS), and 100 units/mL penicillin and 0.1 mg/mL streptomycin. The trypanosomes were propagated in T-25 vented cap flasks (Corning Inc., Lowell, MA) at 37°C and 5% CO2 with humidity. To ensure log growth phase, trypanosomes were sub-cultured at appropriate dilutions (typically 1∶100) every 2–3 days in fresh HMI-9 medium. T. b. rhodesiense parasites were grown in MEM medium with Earle's salts supplemented with 15% horse serum. For T. b. gambiense, the MEM medium was supplemented with 5% heat-inactivated fetal calf serum (FCS) and 15% human serum.[21] L929 mouse fibroblast cells (ATCC CCL1, American Type Culture Collection, Rockville, MD) were used to determine parasite versus mammalian cell selectivity. Cells were cultured in Dulbecco's Modified Eagle Medium (DMEM), supplemented with 10% FBS, L-glutamine and 100 units/mL penicillin and 0.1 mg/mL streptomycin. MDCKII-hMDR1 cells were generously provided by P. Borst at the Netherlands Kancer Institute. Cells were cultured in DMEM with Glutamax, 10% (v/v) FBS, and 100 units/mL penicillin and 0.1 mg/mL streptomycin. Cell monolayers were fed with cell culture media 24 h after seeding and used for permeability studies 3 days later.
(§1) Compounds to be tested were serially diluted in DMSO and added to 96-well plates to give final concentrations ranging from 5 to 0.01 µg/mL. T. b. brucei parasites in the log phase of growth were diluted in HMI-9 media and added to each well for a final concentration of 1×10^4 parasites per well. For the sensitivity assays using T. b. rhodesiense and T. b. gambiense, pararasites were cultured in MEM supplemented with Baltz components (8), diluted in the aforementioned culture media, and added to each well at a density of 1×10^3 cells/well. The final concentration of DMSO was 0.5% and the total volume was 100 µL/well. After a 72 h incubation, resazurin (Sigma-Aldrich, St. Louis, MO) was added to each well [20 µL of 25 mg/100 mL stock in phosphate buffered saline (PBS)] and incubated for an additional 4–6 h.[22] To assess cell viability, fluorescence was quantified using an EnVision Multilabel Plate Reader (Perkin Elmer, Waltham, MA) at an excitation wavelength of 530 nm and emission of 590 nm. Triplicate data points were averaged to generate sigmoidal dose-response curves and determine IC50 values using XLfit curve fitting software from IDBS (Guilford, UK). The IC50 is defined as the amount of compound required to decrease parasite or cell viability by 50% compared to those grown in the absence of the test compound. […]
In general terms: The colour change of resazurin is a common sign of viable cells or microbes.

For series [2], the target named is T1, CYP1A2 (Homo sapiens, UniProt P05177).
T1 construct: purchased Promega Inc., Madison, WI
The series can be described thus: P450-Glo cytochrome P450 inhibition. The series is classed as biochemical. As to conditions: human recombinant CYP1A2. How it is done: (§2) The potential for compound to exert drug-drug interactions that are mediated through inhibition of cytochrome P450 activities was assessed using P450-Glo assay kits (Promega Inc., Madison, WI). Assays for human cytochrome P450 isoforms 3A4, 1A2, 2C9, 2C19, and 2D6 were performed in triplicate according to the manufacturer's instructions over the concentration range 1–100 µM (n = 6 levels). Briefly, SCYX-7158 was added to membrane preparations containing human recombinant CYP450 enzymes together with luminogenic substrates specific to each isoform. Specific CYP450 inhibitors were included as positive controls (ketoconazole, CYP3A4; alpha-napthoflavone, 1A2; sulfaphenazole, CYP2C9; troglitazone, 2C19, and quinidine, CYP2D6). Reactions were initiated by addition of NADPH-regenerating solution and were allowed to incubate for an additional 15–30 min (isoform dependent). Luciferin detection reagent, containing the luciferin-labeled probe substrate, was then added. Luminescence was recorded on an EnVision Multilabel Plate Reader. Calculation of IC50 concentrations for each enzyme was determined using GraphPad Prism (V5.01).

Series [3] has as its target T2, CYP2C19 (Homo sapiens, UniProt P33261).
T2 construct: purchased Promega Inc., Madison, WI
In words: P450-Glo cytochrome P450 inhibition. The series is classed as biochemical. As to conditions: human recombinant CYP2C19. The protocol:
as §2

Series [4] deals with T3, CYP2C9 (Homo sapiens, UniProt P11712).
T3 construct: purchased Promega Inc., Madison, WI
The series can be described thus: P450-Glo cytochrome P450 inhibition. Format: biochemical. As to conditions: human recombinant CYP2C9. How it is done: as §2

Series [5] addresses T4, CYP2D6 (Homo sapiens, UniProt P10635).
T4 construct: purchased Promega Inc., Madison, WI
In words: P450-Glo cytochrome P450 inhibition. Format: biochemical. As to conditions: human recombinant CYP2D6. How it is done:
as §2

In series [6] the target is T5, CYP3A4 (Homo sapiens, UniProt P08684).
T5 construct: purchased Promega Inc., Madison, WI
In words: P450-Glo cytochrome P450 inhibition. As to conditions: human recombinant CYP3A4. The series is classed as biochemical. How it is done: as §2

A short description of series [7]: Pharmacokinetics in uninfected mice. Format: in vivo, mouse. The protocol:
(§3) The blood distribution, CNS disposition and pharmacokinetics of SCYX-7158 were evaluated in infected or non-infected rodents following intravenous or oral administration of compounds. Pharmacokinetics and bioavailability of SCYX-7158 were also evaluated in non-infected beagle dogs and cynomolgus monkeys. In-life phases of non-infected rodent studies were performed at Vivisource (Waltham, MA); studies in non-naïve cynomolgus monkeys were performed by SNBL USA (Everett, WA). Male CD-1 mice (∼25 g), male Sprague-Dawley rats (∼225 g), or male cynomolgus monkeys (∼3–5 kg) were administered test article by either bolus intravenous injection (IV) or oral gavage. Animals in the IV groups received a single 2 mg/kg IV dose. Animals received oral doses of test articles as either single or twice daily doses ranging from 8 mg/kg to 50 mg/kg. All doses were administered as clear colorless solutions in either 50% (v/v) PEG 400: 20% (v/v) ethanol: 30% (v/v) carboxymethylcellulose (0.5% w/v in sterile water for injection) or 2% (v/v) ethanol: 5% (w/v) dextrose in sterile water for injection. […] For pharmacokinetic analysis, blood samples were collected from mice via cardiac puncture under terminal anaesthesia. Serial blood samples were collected from rats via a vascular access port located in the lateral saphenous vein. Mice and rats were euthanized in a CO2 chamber before collection of terminal blood samples or brain tissue. Blood samples were collected into polypropylene tubes containing K2EDTA anticoagulant and stored on ice until centrifuged for the preparation of plasma. Plasma was stored at −70°C. Whole brains were collected following decapitation, blotted dry, placed into polypropylene containers and then immediately frozen at approximately −70°C. CSF was collected from rats via cisterna magna puncture, placed in sterile polypropylene tubes, and stored at approximately −70°C. […] Treated samples were gently mixed at room temperature for 10 min, and then centrifuged at approximately 3000×g for 15 min at 15°C. The supernatants were transferred to 96-well plates or HPLC vials for analysis by LC-MS/MS. Pharmacokinetic parameters were calculated from composite mean plasma or tissue data using non-compartmental (oral and intravenous routes) and bi-exponential (intravenous route) analyses in Microsoft Excel.

A short description of series [8]: Pharmacokinetics in uninfected rats. The series is classed as in vivo, rat. How it is done:
as §3

Series [9] can be described thus: Pharmacokinetics in cynomolgus monkeys. The series is classed as in vivo, cynomolgus monkey. The protocol:
as §3

The nature of series [10]: Pharmacokinetics in uninfected mice. The series is classed as in vivo, mouse. The note with it: male, CD-1, mouse; oral dose of 56 mg/kg SCYX-7158, plasma.
The subject of series [11] is T. b. brucei TREU 667. The note with it: cited from earlier work.
For series [12] the following is noted: mouse, in vivo, po; cited from earlier work.
The subject of series [13] is GVR35 stage 2 HAT model. As to conditions: ref R. Brun, personal communication, cited from earlier work.
Series [14] deals with T. b. brucei. The series can be described thus: Effect of serum on trypanocidal activity. The series is classed as cell-based. The note with it: 25% mouse serum or 50% bovine serum. How it is done: as §1

T1 sequence (P05177 whole entry): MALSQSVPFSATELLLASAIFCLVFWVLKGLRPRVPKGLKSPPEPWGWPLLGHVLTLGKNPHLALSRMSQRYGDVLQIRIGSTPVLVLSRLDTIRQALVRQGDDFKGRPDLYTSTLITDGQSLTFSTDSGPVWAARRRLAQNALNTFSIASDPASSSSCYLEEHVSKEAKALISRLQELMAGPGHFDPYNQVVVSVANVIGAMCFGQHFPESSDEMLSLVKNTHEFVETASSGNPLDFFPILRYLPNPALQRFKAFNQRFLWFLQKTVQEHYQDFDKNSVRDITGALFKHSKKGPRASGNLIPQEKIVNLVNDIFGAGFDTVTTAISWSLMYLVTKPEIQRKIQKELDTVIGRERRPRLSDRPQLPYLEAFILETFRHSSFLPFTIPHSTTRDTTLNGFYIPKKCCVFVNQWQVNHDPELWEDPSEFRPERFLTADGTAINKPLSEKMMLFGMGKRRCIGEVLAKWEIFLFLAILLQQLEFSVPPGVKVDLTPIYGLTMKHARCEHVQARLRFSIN
T4 sequence (P10635 whole entry): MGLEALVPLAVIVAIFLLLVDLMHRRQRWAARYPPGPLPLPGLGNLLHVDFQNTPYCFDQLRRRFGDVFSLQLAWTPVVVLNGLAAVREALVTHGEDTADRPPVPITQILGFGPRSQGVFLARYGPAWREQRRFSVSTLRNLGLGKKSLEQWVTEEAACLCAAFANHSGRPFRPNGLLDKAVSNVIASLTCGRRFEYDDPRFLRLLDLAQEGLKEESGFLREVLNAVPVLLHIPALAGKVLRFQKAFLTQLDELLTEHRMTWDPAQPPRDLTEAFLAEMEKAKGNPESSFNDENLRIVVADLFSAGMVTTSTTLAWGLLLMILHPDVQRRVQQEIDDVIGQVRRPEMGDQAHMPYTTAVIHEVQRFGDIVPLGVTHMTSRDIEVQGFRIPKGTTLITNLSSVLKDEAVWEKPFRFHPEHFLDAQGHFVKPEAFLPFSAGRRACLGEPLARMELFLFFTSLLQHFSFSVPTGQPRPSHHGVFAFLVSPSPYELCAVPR
T3 sequence (P11712 whole entry): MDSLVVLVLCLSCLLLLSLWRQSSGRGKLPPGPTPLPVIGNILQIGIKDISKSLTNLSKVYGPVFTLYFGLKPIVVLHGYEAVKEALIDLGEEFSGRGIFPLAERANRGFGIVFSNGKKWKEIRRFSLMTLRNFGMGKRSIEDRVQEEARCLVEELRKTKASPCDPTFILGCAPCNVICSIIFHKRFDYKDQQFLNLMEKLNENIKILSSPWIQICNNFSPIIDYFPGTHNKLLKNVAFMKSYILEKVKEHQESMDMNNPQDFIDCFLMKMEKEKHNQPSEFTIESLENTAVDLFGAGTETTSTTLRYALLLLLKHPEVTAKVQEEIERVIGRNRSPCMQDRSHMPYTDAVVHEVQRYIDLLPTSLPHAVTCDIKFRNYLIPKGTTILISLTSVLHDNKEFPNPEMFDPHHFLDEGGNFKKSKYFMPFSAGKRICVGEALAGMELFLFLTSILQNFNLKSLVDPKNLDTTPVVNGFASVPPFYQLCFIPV
T2 sequence (P33261 whole entry): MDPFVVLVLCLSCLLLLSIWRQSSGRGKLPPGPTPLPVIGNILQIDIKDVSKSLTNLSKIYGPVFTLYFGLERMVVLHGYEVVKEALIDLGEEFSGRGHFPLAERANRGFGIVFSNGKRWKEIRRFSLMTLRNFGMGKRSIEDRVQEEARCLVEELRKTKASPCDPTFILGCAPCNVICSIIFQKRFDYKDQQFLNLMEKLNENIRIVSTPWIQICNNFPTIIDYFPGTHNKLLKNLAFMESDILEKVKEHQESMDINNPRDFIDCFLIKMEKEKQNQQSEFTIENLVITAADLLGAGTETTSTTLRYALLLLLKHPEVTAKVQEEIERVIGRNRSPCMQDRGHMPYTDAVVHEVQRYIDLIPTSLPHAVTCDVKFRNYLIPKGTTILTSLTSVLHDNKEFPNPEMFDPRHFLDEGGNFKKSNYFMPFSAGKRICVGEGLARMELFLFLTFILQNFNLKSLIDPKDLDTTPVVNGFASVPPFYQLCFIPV
T5 sequence (P08684 whole entry): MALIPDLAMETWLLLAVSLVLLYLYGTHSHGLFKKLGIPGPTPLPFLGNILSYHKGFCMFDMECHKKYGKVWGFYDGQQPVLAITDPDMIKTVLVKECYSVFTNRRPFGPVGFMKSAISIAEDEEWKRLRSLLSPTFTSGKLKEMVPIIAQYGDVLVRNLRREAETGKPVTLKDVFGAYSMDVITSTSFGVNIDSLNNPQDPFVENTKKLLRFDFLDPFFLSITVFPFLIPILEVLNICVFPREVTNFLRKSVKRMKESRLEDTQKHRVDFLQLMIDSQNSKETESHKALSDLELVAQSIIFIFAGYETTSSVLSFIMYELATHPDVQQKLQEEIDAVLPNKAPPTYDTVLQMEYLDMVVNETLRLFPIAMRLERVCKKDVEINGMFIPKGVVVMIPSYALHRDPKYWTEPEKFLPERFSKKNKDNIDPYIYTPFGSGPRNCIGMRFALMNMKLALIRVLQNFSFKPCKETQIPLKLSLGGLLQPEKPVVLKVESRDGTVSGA

`CC(C)(O)c1ccc(NC(=O)c2ccc(F)cc2C(F)(F)F)cc1O` [SCYX-3109]: the “inhibition of parasite growth” value in series [1] was “inactive”. Besides, the IC50 (as a rule, the concentration needed to halve the response being measured) in series [2] was above 100 µM; in [3] it was above 100 µM; in series [4], above 100 µM; in series [5], above 100 µM; in series [6], 7.5 µM. Further, the “metabolite plasma concentration as % of the SCYX-7158 concentration” value in [7] (oral dose of 56 mg/kg SCYX-7158, all time points) is given as “approximately 1%”; in series [8] (oral dose of 10 mg/kg SCYX-7158, each time point), 3-5%; in series [9] (10 mg/kg NG group, all time points) it was “approximately 1%”. Moreover, the Cmax (usually the highest concentration seen after dosing) in series [8] (male, Sprague-Dawley, rat, oral dose of 10 mg/kg SCYX-7158, plasma, read-out: Cmax) worked out at 500 ng/mL; in [9] (male, cynomolgus monkey, oral, 10 mg/kg SCYX-7158 nasogastric (NG), plasma), 140 ng/mL; in [10] it was 270 ng/mL. Also, the total exposure AUC(0-inf) (commonly the area under the concentration-time curve extrapolated to infinity) in series [9] (male, cynomolgus monkey, oral, 10 mg/kg SCYX-7158 NG, plasma) was found to be 6400 ng·h/mL.
Take `O=C(Nc1ccc2c(c1)B(O)OC2)c1ccc(F)cc1C(F)(F)F` [SCYX-6759, 4-fluoro-N-(1-hydroxy-1,3-dihydrobenzo[c][1], [2]oxaborol-6-yl)-2-trifluoromethylbenzamide]: the “efficacy in stage 2 mouse model” value in series [11] (50 mg/kg twice-daily intraperitoneal (100 mg/kg/day) for 14 days) was “fully efficacious”; in series [11] (50 mg/kg twice-daily oral for 7 days), “only partial efficacy”; in [11] (lower doses or once-daily paradigm) it was “not active”. For the same compound, the “time post-dose at which brain concentrations fell below the MIC” value in [12] is reported as “approximately 12 h”.
Consider `N=C(N)c1ccc(/N=N/Nc2ccc(C(=N)N)cc2)cc1` [berenil, diminazene, reference compound], for which the “outcome in stage 2 model” value in [11] (single 10 mg/kg i.p. on day 4 after infection (positive control)) is listed as “cured”; in series [11] (single 10 mg/kg i.p. on day 21 after infection (negative control)), “do not sustain cures”. Also, the “time of re-infection of the hemolymphatic system (recrudescence)” value in [11] (treated 21 days after infection) was 35–42 days after infection.
Take `OB(O)O` [boric acid]: the “estimated maximum concentration of boric acid” value in [7] (not measured, mice, 56 mg/kg oral SCYX-7158) is recorded as 0.05 µg/mL; in series [8] (not measured, rats, 10 mg/kg oral SCYX-7158), 0.09 µg/mL. Besides, the “estimated maximum concentration of boric acid (borate)” value in [9] (not measured, equimolar to SCYX-3109, 10 mg/kg NG SCYX-7158) is on record as at most 0.02 µg/mL.
Consider `Nc1nc(N)nc(Nc2ccc([As]3SCC(CO)S3)cc2)n1` (centres unmarked) [melarsoprol], for which the toxicity to mice entry in series [13] (20 mg/kg QD x 5 days) is “toxic”. Also, the “dose needed to effect cure” value in [13] (QD × 5 days) is 10 to 15 mg/kg.
As for `Cc1ccc(C(=O)Nc2ccc(S(=O)(=O)O)c3cc(S(=O)(=O)O)cc(S(=O)(=O)O)c23)cc1NC(=O)c1cccc(NC(=O)Nc2cccc(C(=O)Nc3cc(C(=O)Nc4ccc(S(=O)(=O)O)c5cc(S(=O)(=O)O)cc(S(=O)(=O)O)c45)ccc3C)c2)c1` [suramin, reference compound], the “attenuation of in vitro IC50” value in series [14] is on record as “greater than 25 fold”.
